The text below walks through data of patent US10769242B2, “System and method for data mining very large drugs and clinical effects databases” (Cincinnati Children's Hospital Medical Center, priority 2015, dated 2020).

The data set is described as follows: AERSMine mining of FAERS reports: lithium toxicity and inversely correlated drugs. Also noted: species or system patients. Conditions: for safety signal IC for lithium-specific neurological adverse events: human.

A value given as a limit tells only on which side of the number the result lay.

From the text: To establish lithium-adverse event correlation, AERSMine uses multiple quantitative elements such as AE incidence rate, multiple hypothesis testing, relative risk, and safety signals. For this example, the following analytical parameters were used: total reports per adverse event were set to ≥2,000; adverse event and lithium intake co-reported in at least 10 reports; RR set to ≥2; FDR-corrected p-value of <0.001 (Benjamini and Hochberg); and safety signal (i.e., IC) set to >0.
Additionally, by excluding patients with comorbidities (e.g., diabetes) reported to worsen mental health and exacerbate neurological symptoms from the analysis, allows AERSMine to accurately represent potentially lithium-specific adverse events (e.g., aggression, irritability, anger, suicidal tendencies, tremors, and other neurological symptoms, movement disorders, personality changes, etc.). The inventors then sought to determine if AERSMine could identify drugs that are inversely correlated with these adverse events, which may indicate a potential reduction in risk and represent a novel combinatorial strategy to mitigate lithium-related toxicity. […] (no concomitant use with lithium, IC<0, i.e., number of observed events<expected, FDR-corrected p<0.001). To understand how the risks differ across these therapeutic agents, AERSMine additionally allows comparative analyses across multiple drugs or therapeutic classes, which show the differential effects across the inversely correlated drugs.

As for `[Li]` [lithium], the “number of adverse events significantly correlated with lithium use” value (of 4,180 adverse events in 22,575 patient reports, RR>=2, FDR p<0.001, IC>0) is given as 327 adverse events.

Take `CCCCc1nc(Cl)c(CO)n1Cc1ccc(-c2ccccc2-c2nn[nH]n2)cc1` [losartan]: the “safety signal IC for lithium-specific neurological adverse events” value was < 0. As to `CCCCC(=O)N(Cc1ccc(-c2ccccc2-c2nnn[nH]2)cc1)[C@H](C(=O)O)C(C)C` [valsartan], the “safety signal IC for lithium-specific neurological adverse events” value is < 0.
